The results in this text go back to ChEMBL document CHEMBL2157914, “Synthesis, anti-inflammatory and antimicrobial evaluation of novel 1-acetyl-3,5-diaryl-4,5-dihydro (1H) pyrazole derivatives bearing urea, thiourea and sulfonamide moieties” (2012).

The term MIC denotes the least concentration at which growth counts as inhibited. Higher therefore signals weaker potency. The term inhibition denotes the percentage by which the read-out fell short of the control.

Values after ≈ are worked out from the molar mass of the structure shown.

Test [1] deals with Staphylococcus aureus. In words: Antibacterial activity against Staphylococcus aureus MTCC 96 after 24 hrs by agar well diffusion method. Type of test: functional. The following applies: MTCC 96, 24 h. On the technique in general: In agar diffusion tests the substance spreads into inoculated agar from a disc or well.
Test [2] deals with Aspergillus flavus. Description: Antifungal activity against Aspergillus flavus MTCC 277 after 2 to 3 days by agar well diffusion method. The class given is functional.
Test [3] deals with Candida albicans. Description: Antifungal activity against Candida albicans MTCC 227 after 2 to 3 days by agar well diffusion method. The class given is functional.
Test [4] relates to Escherichia coli. In words: Ratio of ciprofloxacin MIC to compound MIC for Escherichia coli MTCC 443. Type of test: functional.
For test [5], the system named is Escherichia coli. Description: Antibacterial activity against Escherichia coli MTCC 443 after 24 hrs by agar well diffusion method. Type of test: functional. As to conditions: MTCC 443, 24 h.
For test [6], the system named is Salmonella typhimurium. In words: Antibacterial activity against Salmonella typhimurium MTCC 98 after 24 hrs by agar well diffusion method. The following applies: Salmonella enterica, MTCC 98, 24 h. The class given is functional, Salmonella enterica subsp. enterica serovar Typhimurium.
Test [7] relates to Salmonella typhimurium. Description: Ratio of ciprofloxacin MIC to compound MIC for Salmonella typhimurium MTCC 98. Type of test: functional, Salmonella enterica subsp. enterica serovar Typhimurium.
In test [8] the test system is Bacillus subtilis. In words: Ratio of ciprofloxacin MIC to compound MIC for Bacillus subtilis MTCC 441. The class given is functional.
For test [9], the system named is Staphylococcus aureus. Description: Ratio of ciprofloxacin MIC to compound MIC for Staphylococcus aureus MTCC 96. Type of test: functional.
For test [10], the system named is Fusarium solani. Description: Ratio of miconazole MIC to compound MIC for Fusarium solani MTCC 350. Type of test: functional.
Test [11] concerns Aspergillus niger. In words: Antifungal activity against Aspergillus niger MTCC 281 after 2 to 3 days by agar well diffusion method. Type of test: functional.
Test [12] relates to Fusarium solani. In words: Antifungal activity against Fusarium solani MTCC 350 after 2 to 3 days by agar well diffusion method. The class given is functional.
The subject of test [13] is Bacillus subtilis. In words: Antibacterial activity against Bacillus subtilis MTCC 441 after 24 hrs by agar well diffusion method. Type of test: functional. The following applies: MTCC 441, 24 h.
The subject of test [14] is Aspergillus flavus. In words: Ratio of miconazole MIC to compound MIC for Aspergillus flavus MTCC 277. The class given is functional.
For test [15], the system named is THP-1. In words: Antiinflammatory activity in human THP1 cells assessed as inhibition of LPS-stimulated TNFalpha production at 10 uM incubated for 30 mins prior to LPS-challenge measured 24 hrs post LPS challenge by ELISA. The class given is functional. On the technique in general: In an ELISA, binding on a coated surface is turned into a signal by an enzyme label.

The subject of test [16] is THP-1. Description: Antiinflammatory activity in human THP1 cells assessed as inhibition of LPS-stimulated IL-6 production at 10 uM incubated for 30 mins prior to LPS-challenge measured 24 hrs post LPS-challenge by ELISA. The class given is functional.
For test [17], the system named is THP-1. In words: Antiinflammatory activity in human THP1 cells assessed as inhibition of LPS-stimulated IL-6 production at 1 uM incubated for 30 mins prior to LPS-challenge measured 24 hrs post LPS-challenge by ELISA. The class given is functional.
Test [18] concerns THP-1. Description: Antiinflammatory activity in human THP1 cells assessed as inhibition of LPS-stimulated TNFalpha production at 1 uM incubated for 30 mins prior to LPS-challenge measured 24 hrs post LPS-challenge by ELISA. The class given is functional.

With `COc1ccc(C2=NN(C(C)=O)C(c3ccc(NS(=O)(=O)c4ccc(C(F)(F)F)cc4Cl)cc3)C2)cc1OC` (stereo not drawn), the MIC in [1] stood at 15 µg/mL (≈ 25.8 µM); in test [2], 15 µg/mL (≈ 25.8 µM); in test [3], 40 µg/mL (≈ 68.7 µM); in [5], 10 µg/mL (≈ 17.2 µM); in test [6], 15 µg/mL (≈ 25.8 µM); in test [11] it was 15 µg/mL (≈ 25.8 µM). Further, the MIC in test [12] and in [13] was 10 µg/mL (≈ 17.2 µM) each time. Further, the Ratio in [4] worked out at 1.5; in test [7], 1.3; in test [8], 1.5; in test [9], 1.3; in test [10], 1.3; in test [14], 1.5. The inhibition at 10 µM in test [15] stood at 38%; in test [16] it was 55%.

For `C[C@@H]1C[C@H]2[C@@H]3CCC4=CC(=O)C=C[C@]4(C)[C@@]3(F)[C@@H](O)C[C@]2(C)[C@@]1(O)C(=O)CO` [DEXAMETHASONE], the inhibition at 1 µM in test [17] turned out to be 84%; in [18], 76%.
